Read-outs that look alike come from different tables or passages of the source.
Key:
PRMT5/MEP50 complex = PRMT5/MEP50 complex (Homo sapiens (Human), UniProt O14744); assay: PRMT5:MEP50 HotSpot Assay (full-length histone H2A substrate, plus and minus MTA); assay type: biochemical; settings: in the presence of 2 μM MTA
Summary of the method: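 Radiometric filter-binding format using recombinant full-length histone H2A as substrate. After the reaction was stopped, mixtures went onto filter paper and tritiated H2A was quantified by scintillation counting.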

[1] = system: PRMT5-dependent Symmetric Di-methyl Arginine signal in HCT116 homozygous MTAP knockout cells; assay: SYM11 In-Cell Western, HCT116 MTAP knockout; assay type: cell-based; settings: HCT116 homozygous MTAP knockout cells, 4 days of treatment, SYM11/DRAQ5 ratio, read-out: In-cell-Western (SYM11) HCT116 MTAP_KO IC50
Protocol: (§1) 1. HCT116 MTAP Knockout Model
(§2) HCT116 cells were genetically engineered to knock out the function of both MTAP alleles using a CRISPR/Cas9 system and an sgRNA targeting the MTAP gene. Following Cas9/MTAP sgRNA transduction, clones were screened to confirm that each allele of the MTAP gene had been inactivated (i.e., homozygous MTAP knock out) creating an MTAP-deficient cell.
(§3) Control samples were analyzed in parallel.
Briefly, on Day 0, 2,000 HCT116 parental or HCT116 homozygous MTAP knockout cells were seeded in 96 well plates in McCoy's 5A supplemented with 10% fetal bovine serum and pen/strep and the cells were incubated overnight at 37° C. plus 5% CO2. The following day, cells were treated with DMSO vehicle control or a dose response of PRMT5 inhibitors, and incubated at 37° C. plus 5% CO^2 for four days.
After 4 days of treatment, the cells were fixed by adding 50 μl of 4% paraformaldehyde solution to each well and the cells were incubated for 20 min at room temperature. The paraformaldehyde solution was removed, 150 μl of ice-cold methanol was added and the plate was placed −20° C. for 10 minutes. The methanol was removed, 150 μl of Odyssey Blocking buffer+0.05% Tween20 was added and the plate was incubated at room temperature with shaking for one hour.
The primary SYM11 antibody solution was removed by aspiration and the wells were washed three consecutive times with phosphate buffered saline containing 0.1% Tween-20 (PBST).
The secondary antibody solution was removed by aspiration and the wells were washed three consecutive times with PB ST.
The SYM11 signal and the DRAQ5 signal were quantified using a Li-Cor Odyssey machine reading at […], respectively. The SYM11/DRAQ5 ratio was used to calculate the inhibition of Symmetric Dimethyl Arginine as percent of DMSO control.

[2] = system: HCT116 homozygous MTAP knockout cells; assay: Proliferation assay (CellTiter-Glo, 10 days of treatment), HCT116 MTAP knockout; assay type: cell-based; settings: read-out: Proliferation HCT116MTAP_KO IC50
Protocol: as §1, §2, §3
Briefly, on Day 0, 250 HCT116 parental or HCT116 homozygous MTAP knockout cell were seeded in 96 well plates in McCoy's 5A supplemented with 10% fetal bovine serum and pen/strep and the cells were incubated overnight at 37° C. plus 5% CO2.
The following day, cells were treated with DMSO vehicle control or a dose response of PRMT5 inhibitors and incubated at 37 C plus 5% CO2 for five days. On Day 6, the cells were trypsinized and split 1:10 into new 96-well plates with fresh medium containing the same concentration of PRMT5 inhibitor and incubated for an additional 5 days at 37° C. plus 5% CO^2.
On Day 11, the viability of the cells was measured using a CTG assay kit (CellTiter-Glo; Promega cat.no G7573) in accordance with the manufacturer's instructions. The IC50 values for each compound after 10 days of treatment were calculated using GraphPad PRISM software.

Chain of PRMT5/MEP50 complex (O14744 2-637): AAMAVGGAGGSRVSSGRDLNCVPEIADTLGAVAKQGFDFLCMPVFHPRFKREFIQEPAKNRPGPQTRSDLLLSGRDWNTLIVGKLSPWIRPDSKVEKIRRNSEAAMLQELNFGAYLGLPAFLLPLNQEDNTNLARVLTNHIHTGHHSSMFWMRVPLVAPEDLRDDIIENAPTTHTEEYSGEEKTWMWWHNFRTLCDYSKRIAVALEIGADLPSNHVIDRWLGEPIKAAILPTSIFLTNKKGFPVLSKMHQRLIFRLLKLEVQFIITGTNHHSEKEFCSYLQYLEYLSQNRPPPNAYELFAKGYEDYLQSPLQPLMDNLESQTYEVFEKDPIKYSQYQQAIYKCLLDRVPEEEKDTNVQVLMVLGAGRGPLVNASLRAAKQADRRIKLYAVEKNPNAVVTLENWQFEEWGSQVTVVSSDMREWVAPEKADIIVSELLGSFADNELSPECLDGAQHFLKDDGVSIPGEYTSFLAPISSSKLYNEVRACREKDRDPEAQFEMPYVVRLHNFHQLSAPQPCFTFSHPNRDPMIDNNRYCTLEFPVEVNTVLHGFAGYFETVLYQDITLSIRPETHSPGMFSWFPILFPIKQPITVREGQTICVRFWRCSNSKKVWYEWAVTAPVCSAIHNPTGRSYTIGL
Chain of PRMT5/MEP50 complex (Q9BQA1 2-342 partner): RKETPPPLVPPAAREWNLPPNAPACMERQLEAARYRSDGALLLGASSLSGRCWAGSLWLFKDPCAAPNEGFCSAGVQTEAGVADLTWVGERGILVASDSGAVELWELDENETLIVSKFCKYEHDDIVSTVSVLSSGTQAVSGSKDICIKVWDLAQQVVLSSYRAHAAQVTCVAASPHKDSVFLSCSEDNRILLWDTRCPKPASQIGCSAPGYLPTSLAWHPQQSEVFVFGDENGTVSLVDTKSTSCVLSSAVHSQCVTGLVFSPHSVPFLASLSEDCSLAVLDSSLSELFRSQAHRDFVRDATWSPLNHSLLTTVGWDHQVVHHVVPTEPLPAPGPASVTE

| SMILES | IC50 (PRMT5/MEP50 complex; IC50 + 2 μM MTA) | IC50 [1] | IC50 [2] | IC50 (PRMT5/MEP50 complex; read-out: IC50 + 2 μM MTA) | IC50 ([1]; Homo sapiens, HCT-116, 96 h) | IC50 ([2]; Homo sapiens, HCT-116, 240 h) |
| --- | --- | --- | --- | --- | --- | --- |
| CC(N)c1n[nH]c(=O)c2ccc(-c3cnn(C)c3-c3cccc(Cl)c3C#N)cc12 (single isomer, unassigned) [Example 9-3, 2-[4-[4-(1-aminoethyl)-1-oxo-2H-phthalazin-6-yl]-2-methyl-pyrazol-3-yl]-6-chloro-benzonitrile] | 1270 nM | 141 nM | 4820 nM | – | – | – |
| Cn1ncc(-c2ccc3c(=O)[nH]nc(CN)c3c2)c1-c1c(C#N)cc2ccccc2c1Cl (single isomer, unassigned) [Example 16-5] | – | 272 nM | 2850 nM | 994 nM | – | – |
| Cn1ncc(-c2ccc3c(=O)[nH]nc(CN)c3c2)c1-c1c(C#N)cc2ccccc2c1Cl (single isomer, unassigned) [Example 16-6] | – | 20 nM | 64 nM | 28 nM | – | – |
| Cn1ncc(-c2ccc3c(=O)[nH]nc(CN)c3c2)c1-c1ccc2ccccc2c1Cl [Example 4-181, 4-(aminomethyl)-6-(5-(1-chloronaphthalen-2-yl)-1-methyl-1H-pyrazol-4-yl)phthalazin-1(2H)-one] | 401 nM | – | – | – | 25 nM | 450 nM |
| Cn1ncc(-c2ccc3c(=O)[nH]nc(CN)c3c2)c1CC(C#N)c1ccccc1 (centres unmarked) [Example 4-183, 3-(4-(4-(aminomethyl)-1-oxo-1,2-dihydrophthalazin-6-yl)-1-methyl-1H-pyrazol-5-yl)-2-phenylpropanenitrile] | 2770 nM | – | – | – | 324 nM | 897 nM |
| Cn1ncc(-c2c(-c3ccc4c(=O)[nH]nc(CN)c4c3)cnn2C)c1Cl [Example 4-185, 4-(aminomethyl)-6-(5′-chloro-1′,2-dimethyl-1′H,2H-[3,4′-bipyrazol]-4-yl)phthalazin-1(2H)-one] | 1160 nM | – | – | – | 167 nM | 3020 nM |
| Cn1ncc(-c2c(-c3ccc4c(=O)[nH]nc(CN)c4c3)cnn2C)c1C#N [Example 4-186, 4-(4-(aminomethyl)-1-oxo-1,2-dihydrophthalazin-6-yl)-1′,2-dimethyl-1′H,2H-[3,4′-bipyrazole]-5′-carbonitrile] | 2310 nM | – | – | – | 5110 nM | 5780 nM |
| NCc1n[nH]c(=O)c2ccc(-c3cnc4ccc(-c5ccccc5)nn34)cc12 [Example 4-191, 4-(aminomethyl)-6-(6-phenylimidazo[1,2-b]pyridazin-3-yl)phthalazin-1(2H)-one] | 612 nM | – | – | – | 911 nM | 1520 nM |
| Cn1ncc(-c2ccc3c(=O)[nH]nc(CN)c3c2)c1-c1cccc2c1COC2 [Example 4-220, 4-(aminomethyl)-6-(5-(1,3-dihydroisobenzofuran-4-yl)-1-methyl-1H-pyrazol-4-yl)phthalazin-1(2H)-one] | 567 nM | – | – | – | 212 nM | 5160 nM |
| Cn1ncc(-c2ccc3c(=O)[nH]nc(CN)c3c2)c1-c1cccc2c1COCC2 [Example 4-221, 4-(aminomethyl)-6-(5-(isochroman-8-yl)-1-methyl-1H-pyrazol-4-yl)phthalazin-1(2H)-one] | 501 nM | – | – | – | 196 nM | 2380 nM |
| Cn1ncc(-c2ccc3c(=O)[nH]nc(CN)c3c2)c1-c1cccc2ccncc12 [Example 4-222, 4-(aminomethyl)-6-(5-(isoquinolin-8-yl)-1-methyl-1H-pyrazol-4-yl)phthalazin-1(2H)-one] | 255 nM | – | – | – | 296 nM | 5340 nM |
| Cn1ncc(-c2ccc3c(=O)[nH]nc(CN)c3c2)c1-c1ccc(OC2CC2)c2cncn12 [Example 4-238, 4-(aminomethyl)-6-(5-(8-cyclopropoxyimidazo[1,5-a]pyridin-5-yl)-1-methyl-1H-pyrazol-4-yl)phthalazin-1(2H)-one] | 2310 nM | – | – | – | 843 nM | 1940 nM |
| Cn1ncc(-c2ccc3c(=O)[nH]nc([C@@H](N)C(F)F)c3c2)c1-c1ccc2ccccc2c1C#N [Example 9-7, 2-[4-[4-[(1R)-1-amino-2,2-difluoro-ethyl]-1-oxo-2H-phthalazin-6-yl]-2-methyl-pyrazol-3-yl]naphthalene-1-carbonitrile] | 2560 nM | – | – | – | > 1000 nM | > 10000 nM |
| Cn1ncc(-c2ccc3c(=O)[nH]nc(CN)c3c2)c1-c1ccc(-c2cnsc2)cc1C#N [Example 12-4, 2-[4-[4-(aminomethyl)-1-oxo-2H-phthalazin-6-yl]-2-methyl-pyrazol-3-yl]-5-isothiazol-4-yl-benzonitrile] | 176 nM | – | – | – | 436 nM | 4370 nM |
| Cn1cc(-c2ccc(-c3c(-c4ccc5c(=O)[nH]nc(CN)c5c4)cnn3C)c(C#N)c2)cn1 [Example 12-5, 2-(4-(4-(aminomethyl)-1-oxo-1,2-dihydrophthalazin-6-yl)-1-methyl-1H-pyrazol-5-yl)-5-(1-methyl-1H-pyrazol-4-yl)benzonitrile] | 112 nM | – | – | – | 456 nM | 3170 nM |
| Cn1cc(-c2ccc(C#N)c(-c3c(-c4ccc5c(=O)[nH]nc(CN)c5c4)cnn3C)c2)cn1 [Example 12-6, 2-[4-[4-(aminomethyl)-1-oxo-2H-phthalazin-6-yl]-2-methyl-pyrazol-3-yl]-4-(1-methylpyrazol-4-yl)benzonitrile] | 730 nM | – | – | – | 380 nM | 7470 nM |
| Cn1ncc(-c2ccc3c(=O)[nH]nc(CN)c3c2)c1-c1cc(-c2cnsc2)ccc1C#N [Example 12-7, 2-(4-(4-(aminomethyl)-1-oxo-1,2-dihydrophthalazin-6-yl)-1-methyl-1H-pyrazol-5-yl)-4-(isothiazol-4-yl)benzonitrile] | 603 nM | – | – | – | 427 nM | 4980 nM |
| COc1cc2ccccc2c(C#N)c1-c1c(-c2ccc3c(=O)[nH]nc(CN)c3c2)cnn1C [Example 12-16, 2-[4-[4-(aminomethyl)-1-oxo-2H-phthalazin-6-yl]-2-methyl-pyrazol-3-yl]-3-methoxy-naphthalene-1-carbonitrile] | – | 0.4 nM | 73 nM | – | 0.5 nM | 75 nM |
| Cc1cnc2ccc(-c3c(-c4ccc5c(=O)[nH]nc(CN)c5c4)cnn3C)c(C#N)c2c1 [Example 12-17, 6-[4-[4-(aminomethyl)-1-oxo-2H-phthalazin-6-yl]-2-methyl-pyrazol-3-yl]-3-methyl-quinoline-5-carbonitrile] | – | – | – | – | 10 nM | 85 nM |
| Cc1cc(OC2CC2)c(C#N)c(-c2c(-c3ccc4c(=O)[nH]nc(CN)c4c3)cnn2C)c1 [Example 12-18, 2-(4-(4-(aminomethyl)-1-oxo-1,2-dihydrophthalazin-6-yl)-1-methyl-1H-pyrazol-5-yl)-6-cyclopropoxy-4-methylbenzonitrile] | – | – | – | – | 10 nM | 104 nM |
| CCOc1cc(-c2cnn(C)c2-c2ccc3ccccc3c2C#N)cc2c(CN)n[nH]c(=O)c12 [Example 13-2, 2-[4-[4-(aminomethyl)-8-ethoxy-1-oxo-2H-phthalazin-6-yl]-2-methyl-pyrazol-3-yl]naphthalene-1-carbonitrile] | – | – | – | – | 64 nM | 149 nM |
| CCOc1cc2ccccc2c(C#N)c1-c1c(-c2cc(OCC)c3c(=O)[nH]nc(CN)c3c2)cnn1C [Example 13-3, 2-[4-[4-(aminomethyl)-8-ethoxy-1-oxo-2H-phthalazin-6-yl]-2-methyl-pyrazol-3-yl]-3-ethoxy-naphthalene-1-carbonitrile] | – | – | – | – | 298 nM | 565 nM |
| CCc1cc(-c2cnn(C)c2-c2cccc(OC3CC3)c2C#N)cc2c(CN)n[nH]c(=O)c12 [Example 15-2, 2-(4-(4-(aminomethyl)-8-ethyl-1-oxo-1,2-dihydrophthalazin-6-yl)-1-methyl-1H-pyrazol-5-yl)-6-cyclopropoxybenzonitrile] | – | – | – | – | 96 nM | 211 nM |

Reference: patent US11479551B2, “MTA-cooperative PRMT5 inhibitors” (Mirati Therapeutics, Inc., priority 2019, dated 2022)
